From patent US12071421B2, “Process for the synthesis of substituted chloromethyl dialkylphosphates” (HELSINN HEALTHCARE SA, priority 2011, dated 2024) come the findings set out here.

Converted amounts (≈) assume the structure as drawn.

Series [1] is described as follows: Stability studies of GA1 parent acid species and its salts (degradation on storage). How it is done: Their synthesis employed either a) neutralization of the dried diacid phosphate species and its corresponding base salts or b) a direct acid deprotection starting from the dried di(tert-butyl)-protected phosphate species. Neutralization was performed with L-histidine, magnesium salt, N-methyl-D-glucamine (dimeglumine), and L-lysine. Both procedures were tried in the synthesis of citric derivatives whereas with other acids the direct deprotection reaction was used. The figures below show the most relevant structures.
Alphabetical letters are used to denote data points on the graph that correspond to degradation percentage values over time for respective salts of the same parent compound as just described above and in Table 2 below.

Series [2] is described as follows: Chemical stability according to ICH guidelines under accelerated conditions (40° C.). Type of series: physicochemical. Here is the method: Stability was tested according to ICH guidelines under accelerated conditions (40° C.).
Series [3] is described as follows: Aqueous solubility (neutral pH). The series is classed as physicochemical. The note with it: for solubility: aqueous medium.
The nature of series [4]: Dog PKs study / comparative bioequivalence (IV vs oral netupitant). The series is classed as in vivo, Beagle dogs. How it is done: The pharmacokinetics (PKs) study of three compounds (e.g., compound nos. 1-3 of the above Table 3), as compared to a reference compound—netupitant (orally administered), on rat and dog was conducted.
Dog PKs Study: the dogs tested in the study were Beagle dogs, body weight 8-10 kg, and 3 male dogs per group. The four PK experiments were performed in 12 naïve dogs. The dose was 3 mg/kg administered via intravenous (IV) slow injection into the left and right cephalic or left and right saphenous veins used in rotation. […] The dose was administered to each animal on the basis of the most recently recorded body weight and the volume administered was recorded for each animal. Netupitant 3 mg/kg dose was tested at 2 ml/kg in vehicle (DMSO:Ethanol:Tween80 solution=[…], v/v), dependence on its solubility. Dose was freshly prepared before each single PK experiment. Before administration, dogs were fasted 12 hr, water ad libitum. After 480 min time point blood was collected, dogs were fed. 0.5 ml blood was collected in heparinised tubes at pre-dose and at 2, 5, 15, 30 min, 1, 2, 4, 6, 8, 12, 24, 36, 48 and 72 hr after intravenous administration. […] Prepared quantification standard curve at 2, 10, 40, 100, 200, 1000 and 2000 ng/ml (diluted from methanol stock with methanol containing 1% formic acid). […] Dog plasma samples were analyzed by using an API4000 MS coupled with HPLC. […]

One may read the solubility as the dissolved amount per volume that the medium holds. Low values mean a poorly soluble substance, high ones a readily soluble substance.

Turning to `Cc1ccccc1-c1cc(N2CC[N+](C)(COP(=O)([O-])O)CC2)ncc1N(C)C(=O)C(C)(C)c1cc(C(F)(F)F)cc(C(F)(F)F)c1` [1. NaOH, 3 eq. 2. Fumaric acid, 1 eq.], the results for the Degradation entry in series [1] (12 days) and in series [1] (14 days) were “+1.80% in 12 days (in argon)” and “+1.95% in 14 days (in air)”, respectively.
As to `Cc1ccccc1-c1cc(N2CC[N+](C)(COP(=O)(O)O)CC2)ncc1N(C)C(=O)C(C)(C)c1cc(C(F)(F)F)cc(C(F)(F)F)c1` [Compound 1], in series [2], the “Chemical Stability” value is given as “medium”. Moreover, the solubility in series [3] (pH 7) lay in the range of 10000 to 15000 µg/mL. The “bioequivalence to oral netupitant at the same dose” value in series [4] (IV) is listed as “bioequivalent”.
Turning to `Cc1ccccc1-c1cc(N2CCN(C)CC2)[n+]([O-])cc1N(C)C(=O)C(C)(C)c1cc(C(F)(F)F)cc(C(F)(F)F)c1` [Compound 4], the “Chemical Stability” value in series [2] is listed as “medium”. The same compound displayed a solubility in series [3] (pH 7) of about 600 µg/mL (≈ 1010 µM).
For the compound `Cc1ccccc1-c1cc([N+]2([O-])CCN(C)CC2)ncc1N(C)C(=O)C(C)(C)c1cc(C(F)(F)F)cc(C(F)(F)F)c1` [Compound 5, reference compound], the “Chemical Stability” value in series [2] is listed as “medium”. The same compound gave a solubility in series [3] (pH 7) of about 1000 µg/mL (≈ 1680 µM).
As to `Cc1ccccc1-c1cc([N+]2([O-])CCN(C)CC2)[n+]([O-])cc1N(C)C(=O)C(C)(C)c1cc(C(F)(F)F)cc(C(F)(F)F)c1` [Compound 6], the “Chemical Stability” value in series [2] is “low”.
For the compound `CC(=O)OC[N+]1(C)CCN(c2cc(-c3ccccc3C)c(N(C)C(=O)C(C)(C)c3cc(C(F)(F)F)cc(C(F)(F)F)c3)cn2)CC1` [Compound 7], the “Chemical Stability” value in series [2] is given as “low”. The “Solubility (neutral pH)” value in series [3] was “insoluble”.
As to `CCCC(=O)OC[N+]1(C)CCN(c2cc(-c3ccccc3C)c(N(C)C(=O)C(C)(C)c3cc(C(F)(F)F)cc(C(F)(F)F)c3)cn2)CC1` [Compound 8], in series [2], the “Chemical Stability” value is on record as “Low”. In addition, the “Solubility (neutral pH)” value in series [3] is “insoluble”.
In turn, `Cc1ccccc1-c1cc(N2CCN(C)CC2)ncc1N(C)C(=O)C(C)(C)c1cc(C(F)(F)F)cc(C(F)(F)F)c1` [Compound 9, 2-(3,5-bis(trifluoromethyl)phenyl)-N,2-dimethyl-N-(6-(4-methylpiperazin-1-yl)-4-(o-tolyl)pyridin-3-yl)propanamide, reference compound] registered a solubility in series [3] (pH 7, unit inferred) of 250 µg/mL (≈ 432 µM). Besides, the AUC(0-t) in series [4] (male, beagle, plasma, PO, 3 mg/kg, read-out: Mean AUC0-t (converted)) is 5120 ng·h/mL.
As to `Cc1ccccc1-c1cc(N2CC[N+](C)(COP(=O)([O-])O)CC2)ncc1N(C)C(=O)C(C)(C)c1cc(C(F)(F)F)cc(C(F)(F)F)c1` [HBr, 48%, 4 eq.], the “Product stability (comment)” value in series [1] is on record as “Product degrades rapidly”.
For `Cc1ccccc1-c1cc(N2CC[N+](C)(COP(=O)([O-])O)CC2)ncc1N(C)C(=O)C(C)(C)c1cc(C(F)(F)F)cc(C(F)(F)F)c1` [L-lysine, 1 eq.], the Degradation entry in series [1] (12 days) is listed as “+0.48% in 12 days (in argon)”; in series [1] (14 days), “+0.69% in 14 days (in air)”.
For `Cc1ccccc1-c1cc(N2CC[N+](C)(COP(=O)([O-])O)CC2)ncc1N(C)C(=O)C(C)(C)c1cc(C(F)(F)F)cc(C(F)(F)F)c1` [N-methyl-D-glucamine (Meglumine), 2 eq.], the Degradation result in series [1] (6 days) was “+0.87% in 6 days (in air)”; in series [1] (11 days), “+1.52% in 11 days (in argon)”.
With `Cc1ccccc1-c1cc(N2CC[N+](C)(COP(=O)(O)O)CC2)ncc1N(C)C(=O)C(C)(C)c1cc(C(F)(F)F)cc(C(F)(F)F)c1.Cl.[Cl-]` [chloride hydrochloride HCl salt of GA1, 4-(5-(2-(3,5-bis(trifluoromethyl)phenyl)-N,2-dimethylpropanamido)-4-(o-tolyl)pyridin-2-yl)-1-methyl-1-((phosphonooxy)methyl)piperazin-1-ium chloride hydrochloride], in series [1], the “resistance to decoupling of the oxo-phosphonomethyl and reversion of the active moiety to its parent state” value is given as “tremendously resistant”.
Consider `Cc1ccccc1-c1cc(N2CC[N+](C)(COP(=O)([O-])O)CC2)ncc1N(C)C(=O)C(C)(C)c1cc(C(F)(F)F)cc(C(F)(F)F)c1` [parent acid species], for which, in series [1] (1 week), the Degradation result is reported as “over 8”. Moreover, in series [1] (6 months), the Degradation entry is reported as “over 65%” and the total degradation was found to be 7.0300.
